Here are results for three compounds from paper PMC9981942, “Pharmacokinetics and tissue distribution of Ramulus Mori (Sangzhi) alkaloids in rats and its effects on liver enzyme activity” (Frontiers in Pharmacology, 2023).

Each structure is given as a SMILES string.

Test in all cases: in vitro
One data set addresses T1, CYP2C6 (Rattus norvegicus, UniProt P05178).
T1 sequence (P05178 1-490): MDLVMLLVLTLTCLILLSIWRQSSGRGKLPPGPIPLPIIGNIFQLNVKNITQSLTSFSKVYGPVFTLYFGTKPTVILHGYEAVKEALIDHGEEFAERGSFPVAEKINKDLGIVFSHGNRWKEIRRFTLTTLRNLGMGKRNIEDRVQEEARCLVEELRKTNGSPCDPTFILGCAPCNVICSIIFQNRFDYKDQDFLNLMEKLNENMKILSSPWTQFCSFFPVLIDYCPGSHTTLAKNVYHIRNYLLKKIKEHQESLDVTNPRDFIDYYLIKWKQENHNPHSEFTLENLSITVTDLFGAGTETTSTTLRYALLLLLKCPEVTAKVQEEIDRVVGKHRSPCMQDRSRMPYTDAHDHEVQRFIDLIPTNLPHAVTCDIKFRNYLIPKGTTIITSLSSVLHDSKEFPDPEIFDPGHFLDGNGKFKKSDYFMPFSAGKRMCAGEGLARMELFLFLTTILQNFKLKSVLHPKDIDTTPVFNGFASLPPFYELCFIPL
Particulars: liver microsomes, pH 7.4, probe diclofenac sodium (20 μM). In general terms: Liver microsomes are vesicles of endoplasmic reticulum, rich in cytochrome P450 enzymes.

Data set [1] addresses T2, CYP1A2 (Homo sapiens, UniProt P05177).
T2 sequence (P05177 1-516): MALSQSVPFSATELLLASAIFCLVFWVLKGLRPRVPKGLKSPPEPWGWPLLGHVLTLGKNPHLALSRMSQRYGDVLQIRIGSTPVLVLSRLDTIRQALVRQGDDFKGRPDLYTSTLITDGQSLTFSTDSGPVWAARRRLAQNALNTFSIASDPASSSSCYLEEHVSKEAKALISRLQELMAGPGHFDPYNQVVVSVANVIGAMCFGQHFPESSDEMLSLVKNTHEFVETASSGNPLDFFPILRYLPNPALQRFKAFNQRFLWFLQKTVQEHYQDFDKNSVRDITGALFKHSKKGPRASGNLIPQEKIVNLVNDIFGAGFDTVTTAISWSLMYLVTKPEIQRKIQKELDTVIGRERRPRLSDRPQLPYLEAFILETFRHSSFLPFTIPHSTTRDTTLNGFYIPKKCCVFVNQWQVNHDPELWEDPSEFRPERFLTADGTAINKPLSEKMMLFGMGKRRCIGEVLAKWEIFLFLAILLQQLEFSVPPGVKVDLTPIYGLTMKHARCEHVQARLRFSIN
Particulars: microsomes, pH 7.4.

Data set [2] deals with T3, CYP1A2 (Rattus norvegicus, UniProt P04799).
T3 sequence (P04799 1-513): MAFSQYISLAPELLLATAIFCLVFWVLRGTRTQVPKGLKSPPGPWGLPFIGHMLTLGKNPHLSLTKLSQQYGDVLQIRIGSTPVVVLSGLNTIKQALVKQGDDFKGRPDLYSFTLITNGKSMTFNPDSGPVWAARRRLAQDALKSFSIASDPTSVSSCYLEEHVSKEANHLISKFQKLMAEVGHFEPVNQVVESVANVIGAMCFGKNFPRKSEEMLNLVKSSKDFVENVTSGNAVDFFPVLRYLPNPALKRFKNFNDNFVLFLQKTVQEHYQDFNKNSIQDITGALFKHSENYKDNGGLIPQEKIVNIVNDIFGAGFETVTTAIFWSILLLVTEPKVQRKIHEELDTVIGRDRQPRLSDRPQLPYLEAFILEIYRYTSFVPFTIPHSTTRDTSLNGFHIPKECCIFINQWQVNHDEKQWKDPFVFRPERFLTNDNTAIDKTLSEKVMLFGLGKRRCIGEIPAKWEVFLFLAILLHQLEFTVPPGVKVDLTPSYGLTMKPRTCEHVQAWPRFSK
Particulars: liver microsomes, pH 7.4, probe phenacetin (50 μM).

The next data set has as its target T4, CYP3A2 (Rattus norvegicus, UniProt P05183).
T4 sequence (P05183 1-504): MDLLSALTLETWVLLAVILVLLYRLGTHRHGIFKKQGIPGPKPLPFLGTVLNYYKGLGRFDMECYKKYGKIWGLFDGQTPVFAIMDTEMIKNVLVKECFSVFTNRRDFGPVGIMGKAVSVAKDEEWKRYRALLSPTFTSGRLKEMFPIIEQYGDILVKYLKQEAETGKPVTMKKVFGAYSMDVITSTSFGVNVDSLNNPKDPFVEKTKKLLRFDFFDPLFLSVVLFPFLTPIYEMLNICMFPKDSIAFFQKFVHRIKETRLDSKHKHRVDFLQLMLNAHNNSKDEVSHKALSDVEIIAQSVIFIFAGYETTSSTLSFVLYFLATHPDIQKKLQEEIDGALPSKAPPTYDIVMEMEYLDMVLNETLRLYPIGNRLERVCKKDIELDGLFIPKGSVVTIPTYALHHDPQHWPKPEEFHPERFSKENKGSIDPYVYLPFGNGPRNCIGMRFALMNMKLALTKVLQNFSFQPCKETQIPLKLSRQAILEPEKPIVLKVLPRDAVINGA
Particulars: liver microsomes, pH 7.4, probe midazolam (5 μM).

One may read the inhibition as the share of the control response that was lost under treatment. In the case of `Nc1ccc(S(=O)(=O)Nc2ccnn2-c2ccccc2)cc1` [sulfaphenazole], the inhibition at 10 min, 50 μM against CYP2C6 came out at 88%.

`Cc1nc2c([nH]1)c(=O)n(C)c(=O)n2Cc1ccco1` [furafylline]: the inhibition at 30 min, 10 μM on CYP1A2 [1] was determined as 71.8%. Also, on CYP1A2 [2], the inhibition at 30 min, 50 μM turned out to be 66.3%.

In the case of `CC(=O)N1CCN(c2ccc(OCC3COC(Cn4ccnc4)(c4ccc(Cl)cc4Cl)O3)cc2)CC1` (stereo not shown) [ketoconazole], on CYP3A2, the inhibition at 5 min, 1 μM was 76.4%.
